Experimental data taken from EP0619297B1, “Fungicides for the control of take-all desease of plants” (MONSANTO COMPANY, priority 1993, dated 1994).
In brackets after ≈: the same amount, converted by molar mass. Read-outs that look alike come from different tables or passages of the source.

Columns and labels:
[1] = tested on: Gaeumannomyces graminis var. tritici (Ggt); test: In vitro assay: mycelial growth on minimal media agar plates (Percent Inhibition; IC50); assay type: cell-based; conditions: for inhibition at 0.1 ppm: read-out: In vitro(ppm) 0.1, Percent Inhibition; for inhibition at 1 ppm: read-out: In vitro(ppm) 1, Percent Inhibition; for inhibition at 10 ppm: read-out: In vitro(ppm) 10, Percent Inhibition; for IC50: interpolated from percent inhibition at 1, 0.1, 0.01, 0.001 and 0.0001 ppm
Protocol: The test compounds (0.25 mL of an appropriate stock solution in acetone) are incorporated into 25 mL minimal media agar [prepared by autoclaving a solution of 17.5 g Czapek Dox broth (Difco), 7.5 g purified agar or Bacto-agar (Difco), and 500 mL distilled/deionized water, and then adding 50 µL of 1 mg/mL thiamine hydrochloride and 50 µL of 1 mg/mL biotin in 5% ethanol] and plates are prepared.
Each plate is inoculated by placing in a triangular shape three 4-mm plugs of Gaeumannomyces graminis var. tritici (Ggt) grown on the minimal media agar described above. The plates are incubated in the dark at 19 - 20 °C for 4 to 5 days. The growth of the fungus is measured as the diameter of the mycelial growth. The result is expressed as Percent Inhibition, calculated as [1 - [(mm growth on treated plate - 4)/(mm growth on control plate - 4)]] x 100.
To determine IC5O values, an in vitro assay was run on each compound at the concentrations of 1, 0.1, 0.01, 0.001, and 0.0001 ppm. The percent inhibition was calculated for each concentration using the equation described in the in vitro assay under the section on Biological Assays. Using the two ordered pairs of (concentration, % inhibition) that bracket 50% inhibition of fungal growth, the concentration for 50% inhibition is calculated from the following equation. IC50 = [(50-I2 )C1 + (I1 -50)C2 ]/(I1 -I2 ), [formula] where C1 = 10C2.

Ggt [2] = test: In vivo (8 week) seed treatment assay: Large Pot Greenhouse Take-All Assay; design: species or system Gaeumannomyces graminis var. tritici; conditions: wheat, 6-inch pots, roots rated after 7-10 weeks; for % control (rates are g/kg seed) 0.125: seed treatment 0.125 g/kg seed; for % control (rates are g/kg seed) 0.25: seed treatment 0.25 g/kg seed; for % control (rates are g/kg seed) 0.5: seed treatment 0.5 g/kg seed; for % control (rates are g/kg seed) 1 g: seed treatment 1 g/kg seed
Protocol: An advanced 8-week seed treatment in vivo assay in soil is as follows.
Compounds are tested for control of Ggt on 'Bergen' or 'Anza' varieties of wheat grown in 6-inch round pots containing soil (equal to thirds of Metro-mix, sand, and silt-loam field soil, all steam sterilized). Seeds are treated with a solution of compound of the present invention at 10,000 ppm stock solution in acetone. 20 mg in 2 ml will treat 10 g of seed at each of 4 rates. Using a 10,000 ppm stock for each compound make the following dilutions series:
A treatment jar is rinsed 2 times with 3 ml of actone. Then 1 ml of the solution is swirled to cover the base of the jar. 10 g of seed are added to the jar and capped after which the jar is swirled and shaken until the seeds get a rapid and even coverage. After about 30-50 seconds the lid is removed as the shaking is continued. After 1 minute the jar is set down to dry. When dry, the seed are poured back into the envelope for either planting in the pots or stored until such planting. The method of planting is as follows:
The 6-inch pots are packed to their ledge with the above soil mix.
a) Treated seed is placed on the surface of the soil (packed to ledge) at the rate of 8 seeds per pot with the seeds about 2-3 inches apart. 5 pots (replicates) are planted per treatment. b) 15 ml of oat inoculum (about 4g) are measured and sprinkled evenly over the soil surface of each pot. c) The soil/seed/inoculum is covered with 180 ml of soil mix (same as above). A 150 ml beaker filled to the top edge-is about 180 ml. d) Initially each of the prepared pots is watered lightly several times to wet soil without washing out seeds. e) In cool winter months the prepared pots are left in the greenhouse at 16° - 18°C with only minimal supplemental light. In warmer months the prepared pots are put in a growth chamber set at 17°C for 3-4 weeks to establish disease, then placed in a greenhouse until harvest. The wheat is harvested, washed, and the roots are rated after 7-10 weeks. f) A % of diseased root area is assigned values using 1, 5, 10, 20, 30, 40, 50, 60, 80, or 100 %. Each pot of plants gets a single rating.

Ggt [3] = test: In vivo assay: control of Ggt on wheat in 3-inch pots with infested soil, rated after four weeks;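 for In vivo(ppm) 0.1, percent disease control: rate is mg active ingredient per pot in 3 mL solution not ppm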;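 for In vivo(ppm) 0.5, percent disease control: rate is mg active ingredient per pot in 3 mL solution not ppm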; design: species or system Gaeumannomyces graminis var. tritici; conditions: Gaeumannomyces graminis, 672 h; for pest or weed control at 0.02 mg/pot: read-out: In vivo(ppm) 0.02mg/pot, percent disease control; for pest or weed control at 0.1 mg/pot: read-out: In vivo(ppm) 0.1, percent disease control; for pest or weed control at 0.5 mg/pot: read-out: In vivo(ppm) 0.5, percent disease control
Protocol: Compounds are tested for control of Ggt on 'Bergen' or 'Anza' varieties of wheat grown in 3-inch square pots containing soil infested with Ggt. The infestation is accomplished by mixing the soil with an inoculum prepared by growing Ggt on 1/4 strength potato dextrose agar (4.875 g potato dextrose agar, 5.0 g Bacto agar, 500 mL distilled, deionized water) in plates and using plugs from the plates to infest sterile oats (400 cc whole oats, 350 mL deionized water, autoclaved). After a one-month incubation period at room temperature, the oats are dried and mixed with the soil at 4% v/v. Four wheat seeds are placed on top of the soil in each pot. […] Five pots are used for each treatment level and the controls, which are untreated, inoculated and non-inoculated pots. After one hour drying time, the seeds are covered with more of the appropriate soil and a layer of vermiculite. The pots are placed in a growth chamber and watered each day. After four weeks, each pot is evaluated for evidence of disease by examination of the seminal roots of each plant under a dissecting microscope. A 0 to 5 rating scale having the following meanings is used: • 0 = no runner hyphae or lesions present • 1 = runner hyphae and a few small lesions present on <10% of root system • 2 = runner hyphae and small lesions present on 10 - 25% of root system • 3 = runner hyphae and lesions present on 25 - 50% of root system • 4 = runner hyphae and many, large, coalescing lesions on >50% of root system • 5 = root system and culm completely inundated with lesions and runner hyphae
From each set of five replicates a high or low score may be eliminated to assure the best representative scores are used to calculate a replicate mean by averaging the remaining scores. This mean score is then compared to the untreated control score and a percent disease control is calculated.

[4] = 0.1 ppm in agar, 19 - 20 °C, 4 to 5 days
[5] = 1 ppm in agar, 19 - 20 °C, 4 to 5 days
[6] = 10 ppm in agar, 19 - 20 °C, 4 to 5 days
[7] = rate 0.02mg/pot, wheat, soil infested with Ggt, after four weeks
[8] = rate 0.1 (head prints ppm, head line ends mg/pot), wheat, soil infested with Ggt, after four weeks, N = no control
[9] = rate 0.5 (head prints ppm, head line ends mg/pot), wheat, soil infested with Ggt, after four weeks, N = no control

Structure (SMILES)	inhibition at 0.1 ppm [1, 4]	inhibition at 1 ppm [1, 5]	inhibition at 10 ppm [1, 6]	% control (rates are g/kg seed) 0.125 (Ggt [2])	% control (rates are g/kg seed) 0.25 (Ggt [2])	% control (rates are g/kg seed) 0.5 (Ggt [2])	% control (rates are g/kg seed) 1 g (Ggt [2])	pest or weed control at 0.02 mg/pot (Ggt [3]; [7])	pest or weed control at 0.1 mg/pot (Ggt [3]; [8])	pest or weed control at 0.5 mg/pot (Ggt [3]; [9])	IC50 [1]	inhibition at 0.1 ppm [1]	inhibition at 1 ppm [1]	inhibition at 10 ppm [1]	pest or weed control at 0.02 mg/pot (Ggt [3]; soil)	pest or weed control at 0.1 mg/pot (Ggt [3]; soil)	pest or weed control at 0.5 mg/pot (Ggt [3]; soil)
CCNC(=O)c1c(OC(C)(C)CC)ccc2ccccc12 [Example 26, N-ethyl 2-[(1,1-dimethylpropyl)oxy]-1-naphthamide]	76%	95%	98%	25%	25%	4%	25%	17%	56%	84%							
C=CCNC(=O)c1c(OC(C)(C)CC)ccc2ccccc12 [Example 27, N-allyl 2-[(1,1-dimethylpropyl)oxy]-1-naphthamide]	93%	98%	98%	21%	21%	0%	25%	27%	75%	95%	8.44 ng/mL (≈ 0.0284 µM)						
CCCNC(=O)c1c(OC(C)(CC)CC)ccc2ccccc12 [Example 31, N-propyl 2-[(1,1-diethylethyl)oxy]-1-naphthamide]	7%	17%	98%					0%	0%	3%							
CCNC(=O)c1c(OC(CC)(CC)CC)ccc2ccccc12 [Example 32, N-ethyl 2-[(1,1-diethylpropyl)oxy]-1-naphthamide]	87%	97%	97%					15%	35%	58%	42.2 ng/mL (≈ 0.135 µM)						
C=CCNC(=O)c1c(OC(CC)(CC)CC)ccc2ccccc12 [Example 33, N-allyl 2-[(1,1-diethylpropyl)oxy]-1-naphthamide]	97%	100%	100%					19%	45%	59%	6.47 ng/mL (≈ 0.0199 µM)						
CCCN(CCC)C(=O)c1c(OC(CC)(CC)CC)ccc2ccccc12 [Example 35, N,N-dipropyl 2-[(1,1-diethylpropyl)oxy]-1-naphthamide]	0%	19%	95%					0%	0%	1%							
CCNC(=O)c1c(OC2(C)CCCC2)ccc2ccccc12 [Example 36, N-ethyl 2-[(1-methyl-1-cyclopentyl)oxy]-1-naphthamide]	76%	98%	100%					0%	0%	60%							
C=CCNC(=O)c1c(OC2(C)CCCCC2)ccc2ccccc12 [Example 39, N-allyl 2-[(1-methyl-1-cyclohexyl)oxy]-1-naphthamide]	57%	96%	96%					0%	11%	28%							
CCNC(=O)c1c([Si](C)(C)C)ccc2sccc12 [Example 41, N-ethyl 5-trimethylsilyl benzothiophene-4-carboxamide]												98%	98%	100%	75%	99%	100%
CCNC(=O)c1c([Si](C)(C)C)ccc2occc12 [Example 42, N-ethyl 5-trimethylsilyl benzofuran-4-carboxamide]												90%	98%	100%	68%	87%	91%
CCNC(=O)c1c([Si](C)(C)C)ccc2ccsc12 [Example 43, N-ethyl 6-trimethylsilyl benzothiophene-7-carboxamide]												98%	100%	100%	50%	79%	88%
